Tested on: T47D breast cancer cells
Experiment: Alamar Blue viability of T47D cells with or without UV triggered release
Type: cell-based
Conditions: 48 hours, free nZnO 16.3 μg/mL, free PTX 40 nM
Protocol: Both cell lines were cultured in log phase using RPMI 1640 media supplemented with 10% fetal bovine serum (FBS), 1% penicillin/streptomycin, 2 mM L-glutamine, and for T47D cells, 0.2 Units/mL of bovine insulin per American Type Culture Collection (ATCC) recommendations.
For viability assessments, both Jurkat and T47D cells were cultured following ATCC recommendations noted above. For the Jurkat T cell line, the cells were first washed with PPH free RPMI 1640 and then seeded at a concentration of 2.5×10^5 cells/mL using the same media in a 96 well plate. For T47D cells, the cells were first seeded in the culture media at 1.0×10^5 cells/well in a 24 well plate the day prior to treatment to allow for cell attachment. The media was then gently aspirated and replaced with the PPH free RPMI 1640 media prior to NP treatment. […]
Once treated with NPs, the cells were then cultured for 48 hours at 37° C. and 5% CO2. […] After optimizing the UV irradiation protocol, required UV exposure was determined to be 3 minutes for Jurkat cells and 2 minutes for T47D cells to re-establish the toxicity of the nZnO while minimizing effects to the cellular viability. Cell viability was assessed using the Alamar Blue metabolic assay. […] The fluorescence intensity measurements were performed using a Biotek Synergy MX plate reader using an excitation/emission of 530/590 nm.

CC(=O)O[C@H]1C(=O)[C@@]2(C)[C@H]([C@H](OC(=O)c3ccccc3)[C@]3(O)C[C@H](OC(=O)[C@H](O)[C@@H](NC(=O)c4ccccc4)c4ccccc4)C(C)=C1C3(C)C)[C@]1(OC(C)=O)CO[C@@H]1C[C@@H]2O [PTX, Paclitaxel]
effect of free (non-encapsulated) controls on viability: somewhat similar effect as the non-triggered release Enc-nZnO/PTX group
